Assay results: patent publication US10428082B2, “Triazole derivatives of melampomagnolide B and methods of use thereof” (BioVentures, LLC, priority 2016, dated 2019)

Legend:
U251 = experiment: NCI 60 growth inhibition; format: cell-based, human; conditions: U251, CNS Cancer, Table 2
CCRF-CEM = experiment: NCI 60 growth inhibition; format: cell-based, human; conditions: Leukemia, Table 2
OVCAR-5 = experiment: NCI 60 growth inhibition; format: cell-based, human; conditions: OVCAR-5, Ovarian Cancer, Table 2
CAKI-1 = experiment: NCI 60 growth inhibition; format: cell-based, human; conditions: CAKI-1, Renal Cancer, Table 2
K-562 = experiment: NCI 60 growth inhibition; format: cell-based, human; conditions: K-562, Leukemia, Table 2
SK-MEL-28 = experiment: NCI 60 growth inhibition; format: cell-based, human; conditions: SK-MEL-28, Melanoma, Table 2
HT29 = experiment: NCI 60 growth inhibition; format: cell-based, human; conditions: HT-29, Colon Cancer, Table 2
KM12 = experiment: NCI 60 growth inhibition; format: cell-based, human; conditions: KM12, Colon Cancer, Table 2
MCF7 = experiment: NCI 60 growth inhibition; format: cell-based, human; conditions: MCF7, Breast Cancer, Table 2
SNB-19 = experiment: NCI 60 growth inhibition; format: cell-based, human; conditions: SNB-19, CNS Cancer, Table 2
HL-60(TB) = experiment: NCI 60 growth inhibition; format: cell-based, human; conditions: HL-60(TB), Leukemia, Table 2
OVCAR-8 = experiment: NCI 60 growth inhibition; format: cell-based, human; conditions: OVCAR-8, Ovarian Cancer, Table 2
ACHN = experiment: NCI 60 growth inhibition; format: cell-based, human; conditions: Renal Cancer, Table 2
SF-268 = experiment: NCI 60 growth inhibition; format: cell-based, human; conditions: SF-268, CNS Cancer, Table 2
DU-145 = experiment: NCI 60 growth inhibition; format: cell-based, human; conditions: DU-145, Prostate Cancer, Table 2
SW-620 = experiment: NCI 60 growth inhibition; format: cell-based, human; conditions: SW-620, Colon Cancer, Table 2
HCT-116 = experiment: NCI 60 growth inhibition; format: cell-based, human; conditions: HCT-116, Colon Cancer, Table 2
MDA-MB-435 = experiment: NCI 60 growth inhibition; format: cell-based, human; conditions: MDA-MB-435, Melanoma, Table 2
RPMI-8226 = experiment: NCI 60 growth inhibition; format: cell-based, human; conditions: RPMI-8226, Leukemia, Table 2
EKVX = experiment: NCI 60 growth inhibition; format: cell-based, human; conditions: Non-Small Cell Lung Cancer, Table 2
PC-3 = experiment: NCI 60 growth inhibition; format: cell-based, human; conditions: PC-3, Prostate Cancer, Table 2
SN12C = experiment: NCI 60 growth inhibition; format: cell-based, human; conditions: Renal Cancer, Table 2
BT-549 = experiment: NCI 60 growth inhibition; format: cell-based, human; conditions: BT-549, Breast Cancer, Table 2
UACC-257 = experiment: NCI 60 growth inhibition; format: cell-based, human; conditions: UACC-257, Melanoma, Table 2
OVCAR-4 = experiment: NCI 60 growth inhibition; format: cell-based, human; conditions: OVCAR-4, Ovarian Cancer, Table 2
[1] = tested on: primary AML cell line AML1; experiment: Anti-leukemic activity, Annexin V/7-AAD flow cytometry; format: cell-based, human; conditions: for EC50: Homo sapiens, AML1, 24 h, 24 h of drug exposure, read-out: AML#1 (EC50)
Description: (§1) The newly synthesized triazole derivatives of melampomagnolide B were screened for anti-leukemic activity against M9 ENL1 and primary AML cell lines; the latter were obtained with informed consent from human patients. Evaluations were performed after 24 h of drug exposure using flow cytometric analysis by labeling with Annexin V and 7-aminoactinomycin D (7-AAD) to delineate apoptotic cell populations. In all experiments PTL was included as a reference control.

[2] = tested on: primary AML cell line AML2; experiment: as above; format: cell-based, human; conditions: for EC50: Homo sapiens, 24 h, 24 h of drug exposure, read-out: AML#2 (EC50)
Description: as §1

HO-1 = experiment: Induction of HO-1 by Western blot assay; format: cell-based
NF-κB pathway = experiment: NF-κB inhibition by Western blot, phosphorylation of the P65 subunit; format: cell-based
Description: Also JVM 4-29 was evaluated for NF-κB inhibition by Western blot analysis; by determining its effect on the phosphorylation of the P65 subunit.

C=C1C(=O)O[C@H]2[C@H]1CC/C(Cn1cc(-c3cc(C)c(C)cc3C)nn1)=C\CC[C@@]1(C)O[C@@H]21 [JVM 4-50]
GI50 (U251): 1530 nM | GI50 (CCRF-CEM): 450 nM | GI50 (OVCAR-5): 1740 nM | GI50 (CAKI-1): 1080 nM | GI50 (K-562): 1390 nM | GI50 (SK-MEL-28): 1400 nM | GI50 (HT29): 500 nM | GI50 (KM12): 2310 nM | GI50 (MCF7): 430 nM | GI50 (SNB-19): 3900 nM | GI50 (HL-60(TB)): 640 nM | GI50 (OVCAR-8): 920 nM | GI50 (ACHN): 1070 nM | GI50 (SF-268): 1520 nM | GI50 (DU-145): 1350 nM | GI50 (SW-620): 420 nM | GI50 (HCT-116): 330 nM | GI50 (MDA-MB-435): 1410 nM | GI50 (RPMI-8226): 1180 nM | GI50 (EKVX): 1220 nM | GI50 (PC-3): 1470 nM | GI50 (SN12C): 1490 nM | GI50 (BT-549): 750 nM | GI50 (UACC-257): 1290 nM | GI50 (OVCAR-4): 700 nM

C=C1C(=O)O[C@H]2[C@H]1CC/C(Cn1cc(-c3ccc(F)cc3)nn1)=C\CC[C@@]1(C)O[C@@H]21 [JVM 4-26]
GI50 (U251; Homo sapiens, U-251): 2020 nM | GI50 (CCRF-CEM; Homo sapiens): 240 nM | GI50 (OVCAR-5; Homo sapiens): 1470 nM | GI50 (CAKI-1; Homo sapiens): 1030 nM | GI50 (K-562; Homo sapiens, K562): 940 nM | GI50 (SK-MEL-28; Homo sapiens): 820 nM | GI50 (HT29; Homo sapiens): 690 nM | GI50 (KM12; Homo sapiens): 1700 nM | GI50 (MCF7; Homo sapiens): 350 nM | GI50 (SNB-19; Homo sapiens): 3390 nM | GI50 (HL-60(TB); Homo sapiens): 720 nM | GI50 (OVCAR-8; Homo sapiens): 1660 nM | GI50 (ACHN; Homo sapiens): 180 nM | GI50 (SF-268; Homo sapiens): 1690 nM | GI50 (DU-145; Homo sapiens): 690 nM | GI50 (SW-620; Homo sapiens): 420 nM | GI50 (HCT-116; Homo sapiens): 290 nM | GI50 (MDA-MB-435; Homo sapiens): 1000 nM | GI50 (RPMI-8226; Homo sapiens): 1410 nM | GI50 (EKVX; Homo sapiens): 1490 nM | GI50 (PC-3; Homo sapiens): 2000 nM | GI50 (SN12C; Homo sapiens): 1640 nM | GI50 (BT-549; Homo sapiens): 830 nM | GI50 (UACC-257; Homo sapiens): 1470 nM | GI50 (OVCAR-4; Homo sapiens): 1290 nM | EC50 [1]: 1100 nM | EC50 [2]: 1900 nM

C=C1C(=O)O[C@H]2[C@H]1CC/C(Cn1cc(-c3cc(C(F)(F)F)cc(C(F)(F)F)c3)nn1)=C\CC[C@@]1(C)O[C@@H]21 [JVM 4-29, (1aR,7aS,10aS,10bS,E)-5-((4-(3,5-bis(Trifluoromethyl)phenyl)-1H-1,2,3-triazol-1-yl)methyl)-1a-methyl-8-methylene-2,3,6,7,7a,8,10a,10b-octahydrooxireno[2′,3′:9,10]cyclodeca[1,2-b]furan-9(1aH)-one]
induction of HO-1 compared to PTL (HO-1): stronger induction of HO-1 when compared to PTL | inhibition of the NF-κB pathway compared to parthenolide (NF-κB pathway): significantly more potency as an inhibitor of the NF-κB pathway when compared to parthenolide | GI50 (U251; Homo sapiens, U-251): 1440 nM | GI50 (CCRF-CEM; Homo sapiens): 690 nM | GI50 (OVCAR-5; Homo sapiens): 1100 nM | GI50 (K-562; Homo sapiens, K562): 230 nM | GI50 (SK-MEL-28; Homo sapiens): 460 nM | GI50 (HT29; Homo sapiens): 190 nM | GI50 (KM12; Homo sapiens): 1040 nM | GI50 (MCF7; Homo sapiens): 190 nM | GI50 (SNB-19; Homo sapiens): 1710 nM | GI50 (HL-60(TB); Homo sapiens): 190 nM | GI50 (OVCAR-8; Homo sapiens): 880 nM | GI50 (ACHN; Homo sapiens): 160 nM | GI50 (SF-268; Homo sapiens): 1080 nM | GI50 (DU-145; Homo sapiens): 720 nM | GI50 (SW-620; Homo sapiens): 190 nM | GI50 (HCT-116; Homo sapiens): 150 nM | GI50 (MDA-MB-435; Homo sapiens): 740 nM | GI50 (RPMI-8226; Homo sapiens): 220 nM | GI50 (EKVX; Homo sapiens): 1500 nM | GI50 (PC-3; Homo sapiens): 830 nM | GI50 (SN12C; Homo sapiens): 700 nM | GI50 (BT-549; Homo sapiens): 170 nM | GI50 (UACC-257; Homo sapiens): 1460 nM | GI50 (OVCAR-4; Homo sapiens): 500 nM | EC50 [1]: 400 nM | fold more cytotoxic compared to DMAPT ([1]; primary cell line AML1): 36.7 fold | fold more potent anti-leukemic activity than PTL ([1]; primary cell line AML1): 32.7 fold | fold more potent than the MMB ([1]; primary cell line AML1): 51.2 fold | EC50 [2]: 700 nM | fold more cytotoxic compared to DMAPT ([2]; primary cell line AML2): 16.1 fold | fold more potent anti-leukemic activity than PTL ([2]; primary cell line AML2): 14.8 fold | fold more potent than the MMB ([2]; primary cell line AML2): 34.7 fold
